# Source: ChEMBL document CHEMBL3885881, “DrugMatrix”
# Species: Rattus norvegicus
# Experiment: DrugMatrix - Regimen: Daily Repeat
# Type: toxicity, organism-based, Sprague-Dawley
# Design: regimen Daily Repeat, gender Male, age 6-8 weeks
# Details: in vivo, po, route oral GAVAGE, vehicle .5 % CMC; for BASOPHIL / EOSINOPHIL / ERYTHROCYTE COUNT / HEMATOCRIT / HEMOGLOBIN / LEUKOCYTE COUNT / LYMPHOCYTE / MEAN CORPUSCULAR HEMOGLOBIN / MEAN CORPUSCULAR HEMOGLOBIN CONCENTRATION / MEAN CORPUSCULAR VOLUME / MONOCYTE / NEUTROPHIL / PLATELET COUNT: tissue Blood; for ALANINE AMINOTRANSFERASE / ALBUMIN / ALKALINE PHOSPHATASE / ASPARTATE AMINOTRANSFERASE / BLOOD UREA NITROGEN / CARBON DIOXIDE / CHLORIDE / CHOLESTEROL / CREATINE PHOSPHOKINASE / CREATININE / GLUCOSE / LACTATE DEHYDROGENASE / LIPASE / PHOSPHORUS / POTASSIUM / SODIUM / TOTAL BILIRUBIN / TOTAL PROTEIN / URIC ACID: tissue Plasma
# [1] = 0 mg/kg, 72 h, dose level Control, time 3 day
# [2] = 0 mg/kg, 120 h, dose level Control, time 5 day
# [3] = 47 mg/kg, 72 h, dose level Low, time 3 day
# [4] = 47 mg/kg, 120 h, dose level Low, time 5 day
# [5] = 1200 mg/kg, 72 h, dose level High, time 3 day
# [6] = 1200 mg/kg, 120 h, dose level High, time 5 day
structure (smiles),measurement,setting,value
Nc1ccn([C@H]2CC[C@@H](CO)O2)c(=O)n1 [ZALCITABINE],BASOPHIL,[1],0.17%
same,EOSINOPHIL,[1],0.83%
same,ERYTHROCYTE COUNT,[1],7.2 x10E6/uL
same,HEMATOCRIT,[1],43.13%
same,HEMOGLOBIN,[1],14.63 G/DL
same,LEUKOCYTE COUNT,[1],9.05 x10E3/uL
same,LYMPHOCYTE,[1],75.17%
same,MEAN CORPUSCULAR HEMOGLOBIN,[1],20.35 pg
same,MEAN CORPUSCULAR HEMOGLOBIN CONCENTRATION,[1],33.95 G/DL
same,MEAN CORPUSCULAR VOLUME,[1],59.93 fL
same,MONOCYTE,[1],2.83%
same,NEUTROPHIL,[1],21.17%
same,PLATELET COUNT,[1],1093.17 x10E3/uL
same,ALANINE AMINOTRANSFERASE,[1],49.17 u/L
same,ALBUMIN,[1],4.33 G/DL
same,ALKALINE PHOSPHATASE,[1],366.5 u/L
same,ASPARTATE AMINOTRANSFERASE,[1],86.33 u/L
same,BLOOD UREA NITROGEN,[1],17 mg/dL
same,CARBON DIOXIDE,[1],24.17 mmol/L
same,CHLORIDE,[1],102.83 MEQ/L
same,CHOLESTEROL,[1],78.33 mg/dL
same,CREATINE PHOSPHOKINASE,[1],320.83 u/L
same,CREATININE,[1],0.3 mg/dL
same,GLUCOSE,[1],140.83 mg/dL
same,LACTATE DEHYDROGENASE,[1],210 u/L
same,LIPASE,[1],9.33 u/L
same,PHOSPHORUS,[1],9.12 mg/dL
same,POTASSIUM,[1],5.65 MEQ/L
same,SODIUM,[1],144.17 MEQ/L
same,TOTAL BILIRUBIN,[1],0.1 mg/dL
same,TOTAL PROTEIN,[1],6.3 G/DL
same,URIC ACID,[1],1.03 mg/dL
same,BASOPHIL,[2],0.17%
same,EOSINOPHIL,[2],1%
same,ERYTHROCYTE COUNT,[2],7.02 x10E6/uL
same,HEMATOCRIT,[2],43.12%
same,HEMOGLOBIN,[2],14.18 G/DL
same,LEUKOCYTE COUNT,[2],9.63 x10E3/uL
same,LYMPHOCYTE,[2],72%
same,MEAN CORPUSCULAR HEMOGLOBIN,[2],20.25 pg
same,MEAN CORPUSCULAR HEMOGLOBIN CONCENTRATION,[2],32.95 G/DL
same,MEAN CORPUSCULAR VOLUME,[2],61.43 fL
same,MONOCYTE,[2],2.67%
same,NEUTROPHIL,[2],24.5%
same,PLATELET COUNT,[2],1028.5 x10E3/uL
same,ALANINE AMINOTRANSFERASE,[2],42.5 u/L
same,ALBUMIN,[2],4.2 G/DL
same,ALKALINE PHOSPHATASE,[2],300.33 u/L
same,ASPARTATE AMINOTRANSFERASE,[2],87.67 u/L
same,BLOOD UREA NITROGEN,[2],17 mg/dL
same,CARBON DIOXIDE,[2],24.33 mmol/L
same,CHLORIDE,[2],99 MEQ/L
same,CHOLESTEROL,[2],70.67 mg/dL
same,CREATINE PHOSPHOKINASE,[2],891.33 u/L
same,CREATININE,[2],0.3 mg/dL
same,GLUCOSE,[2],139.67 mg/dL
same,LACTATE DEHYDROGENASE,[2],289.83 u/L
same,LIPASE,[2],8.83 u/L
same,PHOSPHORUS,[2],9.5 mg/dL
same,POTASSIUM,[2],5.55 MEQ/L
same,SODIUM,[2],139 MEQ/L
same,TOTAL BILIRUBIN,[2],0.0833 mg/dL
same,TOTAL PROTEIN,[2],6.1 G/DL
same,URIC ACID,[2],0.98 mg/dL
same,BASOPHIL,[3],0.33%
same,EOSINOPHIL,[3],1.67%
same,ERYTHROCYTE COUNT,[3],7.03 x10E6/uL
same,HEMATOCRIT,[3],42.67%
same,HEMOGLOBIN,[3],14.33 G/DL
same,LEUKOCYTE COUNT,[3],10.43 x10E3/uL
same,LYMPHOCYTE,[3],70.67%
same,MEAN CORPUSCULAR HEMOGLOBIN,[3],20.4 pg
same,MEAN CORPUSCULAR HEMOGLOBIN CONCENTRATION,[3],33.57 G/DL
same,MEAN CORPUSCULAR VOLUME,[3],60.7 fL
same,MONOCYTE,[3],2.33%
same,NEUTROPHIL,[3],25%
same,PLATELET COUNT,[3],1049.33 x10E3/uL
same,ALANINE AMINOTRANSFERASE,[3],49.33 u/L
same,ALBUMIN,[3],4.27 G/DL
same,ALKALINE PHOSPHATASE,[3],380.5 u/L
same,ASPARTATE AMINOTRANSFERASE,[3],78.67 u/L
same,BLOOD UREA NITROGEN,[3],18.33 mg/dL
same,CARBON DIOXIDE,[3],22.33 mmol/L
same,CHLORIDE,[3],101 MEQ/L
same,CHOLESTEROL,[3],74.67 mg/dL
same,CREATINE PHOSPHOKINASE,[3],442.33 u/L
same,CREATININE,[3],0.27 mg/dL
same,GLUCOSE,[3],147 mg/dL
same,LACTATE DEHYDROGENASE,[3],216.67 u/L
same,LIPASE,[3],9 u/L
same,PHOSPHORUS,[3],9.3 mg/dL
same,POTASSIUM,[3],5.95 MEQ/L
same,SODIUM,[3],143.67 MEQ/L
same,TOTAL BILIRUBIN,[3],0.1 mg/dL
same,TOTAL PROTEIN,[3],6.27 G/DL
same,URIC ACID,[3],0.87 mg/dL
same,BASOPHIL,[4],0.33%
same,EOSINOPHIL,[4],1%
same,ERYTHROCYTE COUNT,[4],7.41 x10E6/uL
same,HEMATOCRIT,[4],44.03%
same,HEMOGLOBIN,[4],14.73 G/DL
same,LEUKOCYTE COUNT,[4],11.23 x10E3/uL
same,LYMPHOCYTE,[4],81.67%
same,MEAN CORPUSCULAR HEMOGLOBIN,[4],19.83 pg
same,MEAN CORPUSCULAR HEMOGLOBIN CONCENTRATION,[4],33.4 G/DL
same,MEAN CORPUSCULAR VOLUME,[4],59.43 fL
same,MONOCYTE,[4],2.33%
same,NEUTROPHIL,[4],15.67%
same,PLATELET COUNT,[4],1184 x10E3/uL
same,ALANINE AMINOTRANSFERASE,[4],46 u/L
same,ALBUMIN,[4],4.43 G/DL
same,ALKALINE PHOSPHATASE,[4],323 u/L
same,ASPARTATE AMINOTRANSFERASE,[4],95.67 u/L
same,BLOOD UREA NITROGEN,[4],15.67 mg/dL
same,CARBON DIOXIDE,[4],22.33 mmol/L
same,CHLORIDE,[4],98.33 MEQ/L
same,CHOLESTEROL,[4],68 mg/dL
same,CREATINE PHOSPHOKINASE,[4],672 u/L
same,CREATININE,[4],0.3 mg/dL
same,GLUCOSE,[4],129 mg/dL
same,LACTATE DEHYDROGENASE,[4],673.67 u/L
same,LIPASE,[4],8.67 u/L
same,PHOSPHORUS,[4],9.57 mg/dL
same,POTASSIUM,[4],5.77 MEQ/L
same,SODIUM,[4],140.67 MEQ/L
same,TOTAL BILIRUBIN,[4],0.1 mg/dL
same,TOTAL PROTEIN,[4],6.4 G/DL
same,URIC ACID,[4],1.23 mg/dL
same,BASOPHIL,[5],0.33%
same,EOSINOPHIL,[5],1%
same,ERYTHROCYTE COUNT,[5],7.16 x10E6/uL
same,HEMATOCRIT,[5],42.4%
same,HEMOGLOBIN,[5],14.27 G/DL
same,LEUKOCYTE COUNT,[5],9.77 x10E3/uL
same,LYMPHOCYTE,[5],80.33%
same,MEAN CORPUSCULAR HEMOGLOBIN,[5],20 pg
same,MEAN CORPUSCULAR HEMOGLOBIN CONCENTRATION,[5],33.73 G/DL
same,MEAN CORPUSCULAR VOLUME,[5],59.27 fL
same,MONOCYTE,[5],2.33%
same,NEUTROPHIL,[5],16.33%
same,PLATELET COUNT,[5],1274 x10E3/uL
same,ALANINE AMINOTRANSFERASE,[5],63.67 u/L
same,ALBUMIN,[5],4.3 G/DL
same,ALKALINE PHOSPHATASE,[5],291.67 u/L
same,ASPARTATE AMINOTRANSFERASE,[5],78 u/L
same,BLOOD UREA NITROGEN,[5],15.33 mg/dL
same,CARBON DIOXIDE,[5],22.67 mmol/L
same,CHLORIDE,[5],103.67 MEQ/L
same,CHOLESTEROL,[5],79 mg/dL
same,CREATINE PHOSPHOKINASE,[5],509 u/L
same,CREATININE,[5],0.3 mg/dL
same,GLUCOSE,[5],141.33 mg/dL
same,LACTATE DEHYDROGENASE,[5],255.33 u/L
same,LIPASE,[5],9.33 u/L
same,PHOSPHORUS,[5],10.23 mg/dL
same,POTASSIUM,[5],5.83 MEQ/L
same,SODIUM,[5],146.33 MEQ/L
same,TOTAL BILIRUBIN,[5],0.1 mg/dL
same,TOTAL PROTEIN,[5],6.17 G/DL
same,URIC ACID,[5],1.33 mg/dL
same,BASOPHIL,[6],0%
same,EOSINOPHIL,[6],0.67%
same,ERYTHROCYTE COUNT,[6],7.45 x10E6/uL
same,HEMATOCRIT,[6],45%
same,HEMOGLOBIN,[6],15 G/DL
same,LEUKOCYTE COUNT,[6],9.43 x10E3/uL
same,LYMPHOCYTE,[6],80%
same,MEAN CORPUSCULAR HEMOGLOBIN,[6],20.1 pg
same,MEAN CORPUSCULAR HEMOGLOBIN CONCENTRATION,[6],33.37 G/DL
same,MEAN CORPUSCULAR VOLUME,[6],60.37 fL
same,MONOCYTE,[6],2.33%
same,NEUTROPHIL,[6],16.33%
same,PLATELET COUNT,[6],957.67 x10E3/uL
same,ALANINE AMINOTRANSFERASE,[6],49.33 u/L
same,ALBUMIN,[6],4.1 G/DL
same,ALKALINE PHOSPHATASE,[6],291.67 u/L
same,ASPARTATE AMINOTRANSFERASE,[6],101.33 u/L
same,BLOOD UREA NITROGEN,[6],15.33 mg/dL
same,CARBON DIOXIDE,[6],22.67 mmol/L
same,CHLORIDE,[6],99.67 MEQ/L
same,CHOLESTEROL,[6],63.33 mg/dL
same,CREATINE PHOSPHOKINASE,[6],865 u/L
same,CREATININE,[6],0.3 mg/dL
same,GLUCOSE,[6],138 mg/dL
same,LACTATE DEHYDROGENASE,[6],744.67 u/L
same,LIPASE,[6],8.33 u/L
same,PHOSPHORUS,[6],9.43 mg/dL
same,POTASSIUM,[6],5.67 MEQ/L
same,SODIUM,[6],141 MEQ/L
same,TOTAL BILIRUBIN,[6],0.1 mg/dL
same,TOTAL PROTEIN,[6],6.23 G/DL
same,URIC ACID,[6],0.9 mg/dL
